From patent publication US20120107836A1, “DEVELOPMENT OF FLUORESCENTLY P-LOOP LABELLED KINASES FOR SCREENING OF INHIBITORS” (priority 2009, published 2012)
Blank lines part the entries; values can stand above or below the compound they belong to.

Experiments:
[1] = target: T1, p38α (Homo sapiens, UniProt Q16539, C119S/C162S/F327L/Y35C); assay: Endpoint fluorescence binding measurements with acrylodan-labelled p38α (glycine-rich loop / P-loop labelled, Y35C); conditions: fluorescence response of acrylodan-labelled p38α
T1 construct: His-tag (N, cleaved yes); made in house; host or cells: E. coli BL21(DE3)
T1 sequence (Q16539 whole entry Y35C/C119S/C162S/F327L): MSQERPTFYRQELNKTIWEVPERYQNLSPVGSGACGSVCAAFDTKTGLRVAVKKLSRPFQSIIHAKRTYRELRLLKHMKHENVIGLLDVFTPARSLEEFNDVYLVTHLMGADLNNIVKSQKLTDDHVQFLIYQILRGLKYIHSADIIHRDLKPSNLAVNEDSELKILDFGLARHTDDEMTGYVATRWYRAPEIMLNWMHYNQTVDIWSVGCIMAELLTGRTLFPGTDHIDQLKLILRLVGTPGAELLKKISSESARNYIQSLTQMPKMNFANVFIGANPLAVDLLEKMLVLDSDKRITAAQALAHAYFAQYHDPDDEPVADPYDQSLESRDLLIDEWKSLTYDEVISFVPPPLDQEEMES
Description: For acrylodan-labelled p38α, ratiometric fluorescence values (R=Iλ512/Iλ475) enabled reliable binding curves of detected compounds to be plotted, allowing for direct determination of the Kd of ligand binding. It should be noted that binding modes of detected molecules can initially be assessed in HTS formats by measuring plates from primary and/or secondary screens at different time points. Compounds that change the maximum ratiometric signal or Kd over time are likely to be Type II/III inhibitors. Alternatively, kinetics of the association (kon) and dissociation (koff) of selected compounds can be determined using cuvettes. To determine kon, a mini stir bar was placed in the bottom of each cuvette to ensure rapid mixing as inhibitor was delivered through the injection port located above the cuvette. […] Nearly instantaneous binding kinetics (<5 s) are characteristic of Type I inhibitors, while slower kinetics (>10 s) indicate the slower binding of Type II or Type III inhibitors to the DFG-out conformation. Following binding, koff was determined by adding a 10-fold excess of unlabelled kinase to shift the binding equilibrium away from the labelled kinase. Addition of excess unlabelled kinase causes the inhibitor to redistribute and dissociate from acrylodan-labelled p38α, resulting in a recovery of the fluorescence signal.

[2] = target: T2, MKK7 (Homo sapiens, UniProt O14733, C202S/C260S/C280S); assay: Real-time and endpoint fluorescence measurements with glycine-rich loop acrylodan-labelled MKK7 kinase domain; type: binding
T2 sequence (O14733 101-408 C202S/C260S/C280S): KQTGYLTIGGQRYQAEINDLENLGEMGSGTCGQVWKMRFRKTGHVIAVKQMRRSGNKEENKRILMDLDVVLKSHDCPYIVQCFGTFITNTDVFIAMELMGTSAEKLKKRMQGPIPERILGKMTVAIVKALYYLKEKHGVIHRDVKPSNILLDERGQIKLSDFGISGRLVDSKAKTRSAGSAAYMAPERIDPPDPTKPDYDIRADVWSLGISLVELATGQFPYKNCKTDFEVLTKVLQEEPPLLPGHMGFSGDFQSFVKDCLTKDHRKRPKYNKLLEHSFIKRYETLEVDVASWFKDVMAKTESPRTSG
Procedure: FIG. 8. Real-time and endpoint fluorescence measurements of a Type II and Type I ligands using glycine-rich loop labelled MKK7. […] Real-time kinetic measurements and detection of binding and dissociation of K252a.
Therefore, the Kd of a Type I inhibitor (K252a) to P-loop labelled MKK7 was measured. […] FIG. 8C highlights the real-time kinetic measurements and detection of binding and dissociation of K252a.

detection of ligand binding by the P-loop labelled p38α assay [1]: detected
Compound: NC(=O)c1c(OCc2c(F)cc(Br)cc2F)nsc1NC(=O)NCCCCN1CCCC1 [CP547632]

Compound: COC(=O)[C@@]1(O)C[C@H]2O[C@]1(C)n1c3ccccc3c3c4c(c5c6ccccc6n2c5c31)C(=O)NC4 [K252a]
Kd [2]: 38 nM | kinetics of binding and dissociation ([2]; real-time measurements, P-loop labelled MKK7): fast

detection of ligand binding by P-loop labelled MKK7 ([2]; negative controls, up to 10 μM): not detected up to 10 uM
Compound: CNC(=O)c1cc(Oc2ccc(NC(=O)Nc3ccc(Cl)c(C(F)(F)F)c3)cc2)ccn1 [sorafenib]
